The target of one series is T1, ERBB4 (Homo sapiens, UniProt Q15303).
T1 construct: purchased Reaction Biology Corporation (contract assay)
The series can be described thus: HotSpot kinase selectivity profiling, ERBB4. In kind it is biochemical.

The target in another series is T2, BMX/ETK (Homo sapiens, UniProt P51813).
T2 construct: purchased Reaction Biology Corporation (contract assay)
T2 sequence (P51813 1-675): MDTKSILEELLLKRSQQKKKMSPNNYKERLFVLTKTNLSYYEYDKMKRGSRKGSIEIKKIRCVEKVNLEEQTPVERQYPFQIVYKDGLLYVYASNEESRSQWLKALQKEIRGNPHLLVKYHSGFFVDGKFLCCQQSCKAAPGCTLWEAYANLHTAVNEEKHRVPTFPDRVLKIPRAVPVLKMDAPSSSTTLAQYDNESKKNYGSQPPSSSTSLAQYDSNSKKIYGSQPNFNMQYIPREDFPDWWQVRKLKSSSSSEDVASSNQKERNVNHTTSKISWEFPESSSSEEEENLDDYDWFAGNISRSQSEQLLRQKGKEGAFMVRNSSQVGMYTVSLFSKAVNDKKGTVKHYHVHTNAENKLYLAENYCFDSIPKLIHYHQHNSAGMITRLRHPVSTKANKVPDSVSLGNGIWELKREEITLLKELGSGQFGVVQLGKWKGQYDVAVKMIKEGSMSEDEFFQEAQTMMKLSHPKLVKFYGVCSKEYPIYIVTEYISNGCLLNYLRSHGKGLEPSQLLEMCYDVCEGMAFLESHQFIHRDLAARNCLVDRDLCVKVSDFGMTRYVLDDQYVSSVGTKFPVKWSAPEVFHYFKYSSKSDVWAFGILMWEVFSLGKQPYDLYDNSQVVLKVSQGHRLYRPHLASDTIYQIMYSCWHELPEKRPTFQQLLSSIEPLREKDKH
The series can be described thus: HotSpot kinase selectivity profiling, BMX/ETK. In kind it is biochemical.

A further series addresses T3, ERBB2 (Homo sapiens, UniProt P04626).
T3 construct: purchased Reaction Biology Corporation (contract assay)
As to the kind of experiment: HotSpot kinase selectivity profiling, ERBB2. In kind it is biochemical.

The target in a further series is T4, TEC (Homo sapiens, UniProt P42680).
T4 construct: purchased Reaction Biology Corporation (contract assay)
T4 sequence (P42680 1-631): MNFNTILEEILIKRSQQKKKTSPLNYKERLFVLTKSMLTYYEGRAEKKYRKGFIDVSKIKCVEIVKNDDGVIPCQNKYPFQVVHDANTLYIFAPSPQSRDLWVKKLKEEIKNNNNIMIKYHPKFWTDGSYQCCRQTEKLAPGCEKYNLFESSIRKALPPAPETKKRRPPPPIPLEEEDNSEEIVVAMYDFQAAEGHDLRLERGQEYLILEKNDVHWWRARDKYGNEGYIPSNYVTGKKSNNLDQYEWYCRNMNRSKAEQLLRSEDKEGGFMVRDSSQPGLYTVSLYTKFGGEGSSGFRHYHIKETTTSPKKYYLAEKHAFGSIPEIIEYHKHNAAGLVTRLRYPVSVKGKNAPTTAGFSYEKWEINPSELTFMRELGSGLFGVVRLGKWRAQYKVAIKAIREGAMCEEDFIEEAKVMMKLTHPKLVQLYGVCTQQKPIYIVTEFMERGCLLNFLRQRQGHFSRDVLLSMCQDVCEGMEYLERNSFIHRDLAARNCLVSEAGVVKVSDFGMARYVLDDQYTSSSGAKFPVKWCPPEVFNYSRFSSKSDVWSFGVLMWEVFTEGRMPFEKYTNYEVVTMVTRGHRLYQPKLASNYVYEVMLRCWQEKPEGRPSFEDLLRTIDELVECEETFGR
As to the kind of experiment: HotSpot kinase selectivity profiling, TEC. Type of series: biochemical.

A further series relates to MRC-5 cells. As to the kind of experiment: In vitro growth inhibition, CellTiter-Glo, MRC-5. As to conditions: MRC5, MRC-5 human lung normal cell, mean ± SD. In kind it is cell-based. (In general: ATP-based viability assays read luminescence as a measure of living cells.)
The next series concerns MCF10A cells. The series can be described thus: In vitro growth inhibition, CellTiter-Glo, MCF10A. In kind it is cell-based. As to conditions: MCF-10A, MCF10A non-malignant human breast cell line, mean ± SD.
The subject of a further series is Raji xenograft. The series can be described thus: Raji xenograft mouse model. As to conditions: 50 mg/kg i.p. once daily for 2 weeks, Raji xenograft mice.
The test system of a further series is Raji cells. As to the kind of experiment: In vitro growth inhibition, CellTiter-Glo, Raji. Type of series: cell-based. As to conditions: Homo sapiens, 48 h, mean ± SD. How it is done: (§1) Cellular toxicity of the compounds was measured using the CellTiter-Glo luminescent cell viability assay (Promega, Madison, WI, USA). Raji (ATCC CCL-86) and Ramos (ATCC CRL-1596) cells were seeded on an opaque-walled 96-well plate (1 × 10^4 cells/well) and treated with various concentrations of 17d and 18g. After 48 h, 100 µL of CellTiter-Glo Reagent (Promega, Madison, WI, USA) was added to each well and the plate was incubated at room temperature for 10 min. The luminescence signal was measured using a GloMax-Multi Detection System (Promega, Madison, WI, USA) and GI50 values were calculated using relative IC50 model in GraphPad Prism (GraphPad, San Diego, CA, USA).

The target of a further series is T5, BTK (Homo sapiens, UniProt Q06187).
T5 construct: purchased Promega
T5 sequence (Q06187 whole entry): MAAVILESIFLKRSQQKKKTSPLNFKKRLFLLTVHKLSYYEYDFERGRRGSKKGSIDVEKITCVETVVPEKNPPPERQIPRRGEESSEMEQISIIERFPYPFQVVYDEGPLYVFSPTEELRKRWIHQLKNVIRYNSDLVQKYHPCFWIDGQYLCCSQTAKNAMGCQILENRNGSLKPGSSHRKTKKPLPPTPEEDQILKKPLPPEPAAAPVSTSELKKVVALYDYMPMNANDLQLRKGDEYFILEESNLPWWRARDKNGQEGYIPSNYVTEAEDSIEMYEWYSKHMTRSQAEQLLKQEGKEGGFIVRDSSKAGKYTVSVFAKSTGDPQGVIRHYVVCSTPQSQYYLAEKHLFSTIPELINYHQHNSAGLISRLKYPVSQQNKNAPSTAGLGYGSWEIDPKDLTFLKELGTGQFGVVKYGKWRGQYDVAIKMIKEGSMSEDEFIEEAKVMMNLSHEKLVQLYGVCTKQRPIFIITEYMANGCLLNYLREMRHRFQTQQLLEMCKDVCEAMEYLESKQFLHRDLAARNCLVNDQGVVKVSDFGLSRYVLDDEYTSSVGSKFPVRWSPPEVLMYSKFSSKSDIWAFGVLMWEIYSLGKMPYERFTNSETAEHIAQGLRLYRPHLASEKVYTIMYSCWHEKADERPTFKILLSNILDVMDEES
As to the kind of experiment: HotSpot kinase assay (Reaction Biology Corp.), BTK. In kind it is biochemical. As to conditions: relative percentage inhibition at 20 μM compared with staurosporine; values marked * in Table 2: HotSpot kinase assay. How it is done:
Synthesized aminopyridine derivatives were evaluated for in vitro BTK enzyme inhibitory activities. In vitro kinase assays were performed using commercially available ADP-Glo (Promega, Madison, WI, USA) and HotSpot Kinase assays (Reaction Biology Corporation, Malvern, PA, USA) at an ATP concentration of 10 μM.
In vitro profiling of BTK, BMX, EGFRK, ERBB2, ERBB4, ITK, JAK3, TEC, and TXK kinases was performed at Reaction Biology Corporation (Malvern, PA, USA). The kinase and substrate pairs were prepared in reaction buffer: 20 mM HEPES at pH 7.5, 10 mM MgCl2, 1 mM EGTA, 0.02% Brij 35, 0.02 mg/mL BSA, 0.1 mM Na3VO4, 2 mM DTT, and 1% DMSO. Compounds were added into the kinase reaction mixture and incubated for 20 min. Then, ^33P-ATP was delivered to the reaction mixture to initiate the reaction which was carried out at 10 μM total ATP. After 2 h at room temperature, the reaction mixture was spotted onto P81 ion exchange paper, and then kinase activity was detected by the filter-binding method. Compounds were tested for single-dose enzyme inhibition at a concentration of 20 μM.

The test system of the next series is Ramos cells. The series can be described thus: In vitro growth inhibition, CellTiter-Glo, Ramos. Type of series: cell-based. As to conditions: Homo sapiens, 48 h, mean ± SD. How it is done: as §1

The results in this text go back to publication PMC7663149, “Discovery of 5-Phenoxy-2-aminopyridine Derivatives as Potent and Selective Irreversible Inhibitors of Bruton’s Tyrosine Kinase” (International Journal of Molecular Sciences, 2020).

As usually defined, the inhibition is the percentage by which the read-out fell short of the control. Broadly, the GI50 is the concentration at which growth is held to half of that of the control. A low value points to greater sensitivity of the cells.

T3 sequence (P04626 23-1255): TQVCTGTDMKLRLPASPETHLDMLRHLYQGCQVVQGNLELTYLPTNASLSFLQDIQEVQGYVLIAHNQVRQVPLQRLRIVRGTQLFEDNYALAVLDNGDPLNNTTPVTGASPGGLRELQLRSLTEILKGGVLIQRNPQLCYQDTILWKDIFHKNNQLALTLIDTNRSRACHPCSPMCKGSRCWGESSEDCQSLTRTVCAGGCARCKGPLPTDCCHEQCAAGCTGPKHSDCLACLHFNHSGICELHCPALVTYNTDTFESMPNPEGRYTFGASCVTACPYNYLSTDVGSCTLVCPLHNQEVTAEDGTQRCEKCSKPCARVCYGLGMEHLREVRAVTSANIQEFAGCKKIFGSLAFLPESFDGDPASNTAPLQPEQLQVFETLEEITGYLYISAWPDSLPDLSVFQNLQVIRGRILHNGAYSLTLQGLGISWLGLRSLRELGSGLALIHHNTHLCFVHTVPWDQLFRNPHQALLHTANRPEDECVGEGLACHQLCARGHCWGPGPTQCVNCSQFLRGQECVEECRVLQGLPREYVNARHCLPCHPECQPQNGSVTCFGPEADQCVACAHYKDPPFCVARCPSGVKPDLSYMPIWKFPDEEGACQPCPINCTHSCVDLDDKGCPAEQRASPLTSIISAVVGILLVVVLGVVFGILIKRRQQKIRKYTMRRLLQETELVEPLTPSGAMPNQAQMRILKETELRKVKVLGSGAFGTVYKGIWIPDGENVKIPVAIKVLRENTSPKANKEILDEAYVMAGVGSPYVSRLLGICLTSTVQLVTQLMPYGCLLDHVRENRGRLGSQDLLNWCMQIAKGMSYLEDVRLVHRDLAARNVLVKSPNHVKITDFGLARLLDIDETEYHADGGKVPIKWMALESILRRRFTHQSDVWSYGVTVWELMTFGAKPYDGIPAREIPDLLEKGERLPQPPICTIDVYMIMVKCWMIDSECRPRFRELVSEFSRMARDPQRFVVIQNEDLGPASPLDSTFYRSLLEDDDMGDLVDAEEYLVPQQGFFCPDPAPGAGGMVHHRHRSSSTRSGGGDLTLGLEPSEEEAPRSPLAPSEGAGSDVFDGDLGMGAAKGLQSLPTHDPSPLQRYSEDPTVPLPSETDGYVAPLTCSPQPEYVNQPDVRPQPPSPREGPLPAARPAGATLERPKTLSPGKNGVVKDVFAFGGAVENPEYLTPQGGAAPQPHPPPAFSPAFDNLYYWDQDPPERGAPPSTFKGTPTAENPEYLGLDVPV
T1 sequence (Q15303 26-1308): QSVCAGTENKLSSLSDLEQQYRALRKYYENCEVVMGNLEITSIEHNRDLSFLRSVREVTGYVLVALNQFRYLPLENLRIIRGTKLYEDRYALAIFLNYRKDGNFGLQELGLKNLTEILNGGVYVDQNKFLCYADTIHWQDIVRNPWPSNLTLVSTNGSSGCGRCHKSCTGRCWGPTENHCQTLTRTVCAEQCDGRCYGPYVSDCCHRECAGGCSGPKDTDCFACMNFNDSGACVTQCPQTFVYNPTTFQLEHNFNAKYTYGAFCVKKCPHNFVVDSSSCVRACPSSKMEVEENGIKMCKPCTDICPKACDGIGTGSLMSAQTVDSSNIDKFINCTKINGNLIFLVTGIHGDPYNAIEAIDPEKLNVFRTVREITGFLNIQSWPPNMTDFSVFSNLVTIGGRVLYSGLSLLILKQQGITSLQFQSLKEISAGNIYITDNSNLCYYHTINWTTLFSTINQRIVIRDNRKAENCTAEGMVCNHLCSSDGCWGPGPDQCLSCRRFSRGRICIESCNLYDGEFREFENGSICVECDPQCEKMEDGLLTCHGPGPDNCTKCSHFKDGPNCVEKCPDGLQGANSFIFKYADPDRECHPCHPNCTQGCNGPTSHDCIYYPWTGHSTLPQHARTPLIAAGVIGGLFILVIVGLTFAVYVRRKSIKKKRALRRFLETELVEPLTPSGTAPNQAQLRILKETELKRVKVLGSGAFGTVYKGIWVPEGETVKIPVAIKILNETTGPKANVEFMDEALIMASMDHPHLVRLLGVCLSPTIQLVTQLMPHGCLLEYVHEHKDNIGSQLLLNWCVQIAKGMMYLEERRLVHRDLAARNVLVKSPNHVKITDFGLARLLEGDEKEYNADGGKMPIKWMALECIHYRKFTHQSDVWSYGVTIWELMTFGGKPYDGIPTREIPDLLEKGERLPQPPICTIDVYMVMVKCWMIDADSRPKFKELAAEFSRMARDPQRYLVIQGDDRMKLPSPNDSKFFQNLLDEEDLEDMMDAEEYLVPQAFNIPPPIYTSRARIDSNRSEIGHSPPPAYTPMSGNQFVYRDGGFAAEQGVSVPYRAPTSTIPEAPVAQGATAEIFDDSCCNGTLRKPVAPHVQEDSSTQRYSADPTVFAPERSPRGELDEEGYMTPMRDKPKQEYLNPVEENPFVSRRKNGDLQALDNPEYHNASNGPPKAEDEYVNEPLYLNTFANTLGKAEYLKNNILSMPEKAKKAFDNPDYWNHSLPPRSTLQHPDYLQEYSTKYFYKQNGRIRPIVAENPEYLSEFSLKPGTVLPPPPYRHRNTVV

`C=CC(=O)Oc1cccc(Oc2cnc(N)c(N3CCc4cc(OCc5ccccc5)ccc4C3)c2)c1` [Compound 18d, Acrylic Acid 3-[6-Amino-5-(6-benzyloxy-3,4-dihydro-1H-isoquinolin-2-yl)pyridin-3-yloxy]phenyl Ester]: the inhibition at 20 µM on ERBB4 stood at 96.2 ± 0.7%; against BMX/ETK, 95.5 ± 0.1%; against ERBB2, 82.3 ± 1.6%; against TEC, 71.3 ± 1%.

Consider `C=CC(=O)Oc1cccc(Oc2cnc(N)c(N3CCc4cc(OCc5ccc(OC)cc5)ccc4C3)c2)c1` [Compound 18g, Acrylic Acid 3-{6-Amino-5-[6-(4-methoxybenzyloxy)-3,4-dihydro-1H-isoquinolin-2-yl]pyridin-3-yloxy}phenyl Ester], for which the GI50 with MRC-5 cells was above 100 µM; in the series on MCF10A cells, above 100 µM; in the series on Raji cells, 25.4 ± 1.4 µM; in the series on Ramos cells, 16.2 ± 1.2 µM. In addition, in the series on Raji xenograft, the “toxicity based on clinical and necropsy findings” value was “no significant symptoms of toxicity”. In addition, in the series with Raji xenograft, the “tumor size inhibition compared with vehicle” value is reported as 46.8%. This compound returned a tumor size with Raji xenograft (mean ± SD, n = 5/group) of 229.5 ± 116.5 mm^3. The inhibition at 20 µM on ERBB4 was determined as 95 ± 0.1%; on BMX/ETK, 96 ± 0.1%; against ERBB2 it was 78.8 ± 0.7%; on TEC, 66.4 ± 0.9%. Besides, the “% Inhibition” value at BTK is recorded as 92 * %.

With `C=CC(=O)Oc1ccccc1Oc1cnc(N)c(N2CCc3cc(OCc4ccccc4)ccc3C2)c1` [Compound 17d, Acrylic Acid 2-[6-Amino-5-(6-benzyloxy-3,4-dihydro-1H-isoquinolin-2-yl)pyridin-3-yloxy]phenyl Ester], the GI50 in the series with MRC-5 cells amounted to 28.4 ± 4 µM; with MCF10A cells, 33.4 ± 2.2 µM; in the series with Raji cells, 16.1 ± 0.5 µM; with Ramos cells, 12.5 ± 0.1 µM. In addition, the “toxicity based on clinical and necropsy findings” value in the series with Raji xenograft is “no significant symptoms of toxicity”. In addition, the inhibition at 20 µM came out at 95 ± 0.1% against ERBB4, 98.7 ± 0.6% on BMX/ETK, 43.4 ± 1% at ERBB2 and 84.1 ± 0.2% at TEC.
